The source of these data is patent US11230540B2, “Substituted triazole derivatives and uses thereof” (Bayer Pharma Aktiengesellschaft, priority 2017, dated 2022).

One assay has as its target T1, human V1a receptor (Homo sapiens, UniProt P37288).
T1 construct: expressed in transfected cells; host or cells: CHO K1 (Chinese hamster ovary), also stably transfected with a modified aequorin
Kind of assay: Cellular in vitro assay for vasopressin receptor activity, V1a receptor cell line (aequorin luminescence). It is filed as cell-based. The settings on record: for IC50: CHO cell line transfected with human V1a receptor, [Arg8]-vasopressin at EC50 concentration, read-out: IC50 hV1a; for ratio IC50 hV2/hV1a: selectivity ratio of the IC50 values hV2/hV1a. The protocol: (§1) B-1. Cellular In Vitro Assay for Determining Vasopressin Receptor Activity
(§2) The identification of agonists and antagonists of the V1a and V2 vasopressin receptors from humans, rats and dogs as well as the quantification of the activity of the compounds of the invention is carried out using recombinant cell lines. These cell lines originally derive from a hamster's ovary epithelial cell (Chinese Hamster Ovary, CHO K1, ATCC: American Type Culture Collection, Manassas, Va. 20108, USA). The test cell lines constitutively express the human, rat or dog V1a or V2 receptors. In case of the […] V1a receptors, cells are also stably transfected with a modified form of the calcium-sensitive photoproteins aequorin (human and rat V1a) or obelin (dog V1a), which, after reconstitution with the cofactor coelenterazine, emit light when there are increases in free calcium concentrations [Rizzuto R, Simpson A W, Brini M, Pozzan T, Nature 358, 325-327 (1992); Illarionov B A, Bondar V S, Illarionova V A, Vysotski E S, Gene 153 (2), 273-274 (1995)]. The resulting vasopressin receptor cells react to stimulation of the recombinantly expressed V1a receptors by intracellular release of calcium ions, which can be quantified by the resulting photoprotein luminescence. The Gs-coupled V2 receptors are stably transfected into cell lines expressing the gene for firefly luciferase under control of a CRE-responsible promoter. Activation of V2 receptors induces the activation of the CRE-responsive promoter via cAMP increase, thereby inducing the expression of firefly luciferase. The light emitted by photoproteins of V1a cell lines as well as the light emitted by firefly luciferase of V2 cell lines corresponds to the activation or inhibition of the respective vasopressin receptor. The bioluminescence of the cell lines is detected using a suitable luminometer [Milligan G, Marshall F, Rees S, Trends in Pharmacological Sciences 17, 235-237 (1996)].
Vasopressin V1a Receptor Cell Lines:
On the day before the assay, the cells are plated out in culture medium (DMEM/F12, 2% FCS, 2 mM glutamine, 10 mM HEPES, 5 μg/ml coelenterazine) in 384-well microtiter plates and kept in a cell incubator (96% humidity, 5% v/v CO2, 37° C.). On the day of the assay, test compounds in various concentrations are placed for 10 minutes in the wells of the microtiter plate before the agonist [Arg^8]-vasopressin at EC50 concentration is added. The resulting light signal is measured immediately in a luminometer.
(§3) Table 1A below lists individual IC50 values for the compounds of the invention (including racemic mixtures as well as separated enantiomers) that were obtained from cell lines transfected with the human V1a or V2 receptor: […]

Another assay has as its target T2, human V2 receptor (Homo sapiens, UniProt P30518).
T2 construct: expressed in transfected cells; host or cells: CHO K1 (Chinese hamster ovary) expressing firefly luciferase under a CRE-responsive promoter
The experiment in a line: Cellular in vitro assay for vasopressin receptor activity, V2 receptor cell line (CRE-luciferase). The class given is cell-based. The note with it: CHO cell line transfected with human V2 receptor; [Arg8]-vasopressin at EC50 concentration; read-out: IC50 hV2. The method, then:
as §1, §2
Vasopressin V2 Receptor Cell Lines:
On the day before the assay, the cells are plated out in culture medium (DMEM/F12, 2% FCS, 2 mM glutamine, 10 mM HEPES) in 384-well microtiter plates and kept in a cell incubator (96% humidity, 5% v/v CO2, 37° C.). On the day of the assay, test compounds in various concentrations and the agonist [Arg^8]-vasopressin at EC50 concentration are added together to the wells, and plates are incubated for 3 hours in a cell incubator. Upon addition of the cell lysis reagent Triton™ and the substrate luciferin, luminescence of firefly luciferase is measured in a luminometer.
as §3

T2 sequence (P30518 whole entry): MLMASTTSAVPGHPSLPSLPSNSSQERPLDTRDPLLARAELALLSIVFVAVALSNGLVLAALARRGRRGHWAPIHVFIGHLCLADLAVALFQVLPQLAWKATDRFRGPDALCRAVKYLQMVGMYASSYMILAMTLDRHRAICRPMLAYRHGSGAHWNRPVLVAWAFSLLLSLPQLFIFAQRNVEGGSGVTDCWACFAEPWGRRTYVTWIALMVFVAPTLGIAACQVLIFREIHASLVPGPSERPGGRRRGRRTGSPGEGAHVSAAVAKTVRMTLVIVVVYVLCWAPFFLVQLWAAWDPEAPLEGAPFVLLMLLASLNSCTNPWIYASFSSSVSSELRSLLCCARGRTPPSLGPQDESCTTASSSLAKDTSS
T1 sequence (P37288 whole entry): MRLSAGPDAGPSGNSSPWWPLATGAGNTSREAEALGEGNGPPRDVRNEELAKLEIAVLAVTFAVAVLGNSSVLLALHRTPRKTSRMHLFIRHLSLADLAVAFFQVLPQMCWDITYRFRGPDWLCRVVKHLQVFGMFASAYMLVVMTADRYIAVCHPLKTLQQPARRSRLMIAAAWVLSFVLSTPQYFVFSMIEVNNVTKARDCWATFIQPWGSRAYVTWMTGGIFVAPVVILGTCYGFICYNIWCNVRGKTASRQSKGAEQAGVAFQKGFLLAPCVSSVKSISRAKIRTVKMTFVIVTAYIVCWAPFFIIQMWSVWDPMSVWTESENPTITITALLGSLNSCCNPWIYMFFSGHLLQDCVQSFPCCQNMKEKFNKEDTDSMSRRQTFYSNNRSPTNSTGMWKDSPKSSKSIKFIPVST

Broadly, the IC50 is the concentration at which inhibition is half-maximal. As to `CC1(CNC(=O)c2nc(Cn3nc(-c4ccc(Cl)cc4)n(C[C@H](O)C(F)(F)F)c3=O)nn2-c2cnccc2Cl)COC1` [Example 8, 3-({3-(4-Chlorophenyl)-5-oxo-4-[(2S)-3,3,3-trifluoro-2-hydroxypropyl]-4,5-dihydro-1H-1,2,4-triazol-1-yl}methyl)-1-(4-chloropyridin-3-yl)-N-[(3-methyloxetan-3-yl)methyl]-1H-1,2,4-triazole-5-carboxamide], at human V1a receptor, the IC50 was found to be 0.68 nM and the “ratio IC50 hV2/hV1a” value was found to be 144.9. The IC50 at human V2 receptor is 98.5 nM.

Take `NNC(=O)c1nc(Cn2nc(-c3ccc(Cl)cc3)n(C[C@H](O)C(F)(F)F)c2=O)nn1-c1cnccc1Cl` [Example 9, 3-({3-(4-Chlorophenyl)-5-oxo-4-[(2S)-3,3,3-trifluoro-2-hydroxypropyl]-4,5-dihydro-1H-1,2,4-triazol-1-yl}methyl)-1-(4-chloropyridin-3-yl)-1H-1,2,4-triazole-5-carbohydrazide]: on human V1a receptor, the IC50 was 2.9 nM and the “ratio IC50 hV2/hV1a” value came out at 51.1. In addition, the IC50 at human V2 receptor came out at 148 nM.

Consider `NNC(=O)c1nc(Cn2nc(-c3ccc(Cl)cc3)n(C[C@H](O)C(F)(F)F)c2=O)nn1-c1ncccc1Cl` [Example 10, 3-({3-(4-Chlorophenyl)-5-oxo-4-[(2S)-3,3,3-trifluoro-2-hydroxypropyl]-4,5-dihydro-1H-1,2,4-triazol-1-yl}methyl)-1-(3-chloropyridin-2-yl)-1H-1,2,4-triazole-5-carbohydrazide], for which, at human V1a receptor, the IC50 is 2.15 nM and the “ratio IC50 hV2/hV1a” value is 44.0. The IC50 at human V2 receptor came out at 94.5 nM.

In the case of `NNC(=O)c1nc(Cn2nc(-c3ccc(Cl)cc3)n(C[C@H](O)C(F)(F)F)c2=O)nn1-c1ncccc1OC(F)(F)F` [Example 11, 3-({3-(4-Chlorophenyl)-5-oxo-4-[(2S)-3,3,3-trifluoro-2-hydroxypropyl]-4,5-dihydro-1H-1,2,4-triazol-1-yl}methyl)-1-[3-(trifluoromethoxy)pyridin-2-yl]-1H-1,2,4-triazole-5-carbohydrazide], at human V1a receptor, the IC50 amounted to 9.1 nM and the “ratio IC50 hV2/hV1a” value turned out to be 180.2. Besides, the 50% inhibitory concentration (IC50) at human V2 receptor was found to be 1640 nM.

On to `O=C(c1nc(Cn2nc(-c3ccc(Cl)cc3)n(C[C@H](O)C(F)(F)F)c2=O)nn1-c1ccccc1Cl)N1CC(O)(C(F)(F)F)C1` [Example 12, 5-(4-Chlorophenyl)-2-{[1-(2-chlorophenyl)-5-{[3-hydroxy-3-(trifluoromethyl)azetidin-1-yl]carbonyl}-1H-1,2,4-triazol-3-yl]methyl}-4-[(2S)-3,3,3-trifluoro-2-hydroxypropyl]-2,4-dihydro-3H-1,2,4-triazol-3-one], for which, at human V1a receptor, the IC50 was found to be 1.19 nM and the “ratio IC50 hV2/hV1a” value came out at 18.7. Besides, the IC50 at human V2 receptor turned out to be 22.2 nM.

Regarding `CC(C)(O)CNC(=O)c1nc(Cn2nc(-c3ccc(Cl)cc3)n(C[C@H](O)C(F)(F)F)c2=O)nn1-c1cccnc1Cl` [Example 15, 3-({3-(4-Chlorophenyl)-5-oxo-4-[(2S)-3,3,3-trifluoro-2-hydroxypropyl]-4,5-dihydro-1H-1,2,4-triazol-1-yl}methyl)-1-(2-chloropyridin-3-yl)-N-(2-hydroxy-2-methylpropyl)-1H-1,2,4-triazole-5-carboxamide], the IC50 was found to be 13 nM on human V1a receptor and 183 nM on human V2 receptor.

Turning to `O=C(NCC(F)(F)F)c1nc(Cn2nc(-c3ccc(Cl)cc3)n(C[C@H](O)C(F)(F)F)c2=O)nn1-c1ncccc1Br` [Example 16, 1-(3-Bromopyridin-2-yl)-3-({3-(4-chlorophenyl)-5-oxo-4-[(2S)-3,3,3-trifluoro-2-hydroxypropyl]-4,5-dihydro-1H-1,2,4-triazol-1-yl}methyl)-N-(2,2,2-trifluoroethyl)-1H-1,2,4-triazole-5-carboxamide], the IC50 is 1.23 nM at human V1a receptor and 40.7 nM on human V2 receptor. Besides, the “ratio IC50 hV2/hV1a” value on human V1a receptor turned out to be 33.1.

For the compound `O=C(NCC(F)(F)F)c1nc(Cn2nc(-c3ccc(Cl)cc3)n(C[C@H](O)C(F)(F)F)c2=O)nn1-c1ncccc1Cl` [Example 17, 3-({3-(4-Chlorophenyl)-5-oxo-4-[(2S)-3,3,3-trifluoro-2-hydroxypropyl]-4,5-dihydro-1H-1,2,4-triazol-1-yl}methyl)-1-(3-chloropyridin-2-yl)-N-(2,2,2-trifluoroethyl)-1H-1,2,4-triazole-5-carboxamide], on human V1a receptor, the IC50 turned out to be 0.71 nM and the “ratio IC50 hV2/hV1a” value stood at 40.2. Besides, the IC50 on human V2 receptor turned out to be 28.3 nM.

`O=C(NCC(F)(F)F)c1nc(Cn2nc(-c3ccc(Cl)cc3)n(C[C@H](O)C(F)(F)F)c2=O)nn1-c1cccnc1Cl` [Example 18, 3-({3-(4-Chlorophenyl)-5-oxo-4-[(2S)-3,3,3-trifluoro-2-hydroxypropyl]-4,5-dihydro-1H-1,2,4-triazol-1-yl}methyl)-1-(2-chloropyridin-3-yl)-N-(2,2,2-trifluoroethyl)-1H-1,2,4-triazole-5-carboxamide]: at human V1a receptor, the IC50 came to 13.5 nM and the “ratio IC50 hV2/hV1a” value was found to be 4.7. Also, the IC50 on human V2 receptor was determined as 64 nM.

Take `O=C(NCC(F)(F)F)c1nc(Cn2nc(-c3ccc(Cl)cc3)n(C[C@H](O)C(F)(F)F)c2=O)nn1-c1cnccc1Cl` [Example 19, 3-({3-(4-Chlorophenyl)-5-oxo-4-[(2S)-3,3,3-trifluoro-2-hydroxypropyl]-4,5-dihydro-1H-1,2,4-triazol-1-yl}methyl)-1-(4-chloropyridin-3-yl)-N-(2,2,2-trifluoroethyl)-1H-1,2,4-triazole-5-carboxamide]: the IC50 at human V1a receptor turned out to be 0.47 nM; on human V2 receptor, 21.5 nM. For the same compound, on human V1a receptor, the “ratio IC50 hV2/hV1a” value was 45.7.

Regarding `COc1cccnc1-n1nc(Cn2nc(-c3ccc(Cl)cc3)n(C[C@H](O)C(F)(F)F)c2=O)nc1C(=O)NCC(C)(C)N` [Example 20, N-(2-Amino-2-methylpropyl)-3-({3-(4-chlorophenyl)-5-oxo-4-[(2S)-3,3,3-trifluoro-2-hydroxypropyl]-4,5-dihydro-1H-1,2,4-triazol-1-yl}methyl)-1-(3-methoxypyridin-2-yl)-1H-1,2,4-triazole-5-carboxamide], at human V1a receptor, the IC50 was 6.95 nM and the “ratio IC50 hV2/hV1a” value was determined as 14.9. The IC50 at human V2 receptor came to 104 nM.

Take `CNC(=O)c1nc(Cn2nc(-c3ccc(Cl)cc3)n(C[C@H](O)C(F)(F)F)c2=O)nn1-c1ncccc1OC` [Example 21, 3-({3-(4-Chlorophenyl)-5-oxo-4-[(2S)-3,3,3-trifluoro-2-hydroxypropyl]-4,5-dihydro-1H-1,2,4-triazol-1-yl}methyl)-1-(3-methoxypyridin-2-yl)-N-methyl-1H-1,2,4-triazole-5-carboxamide]: on human V1a receptor, the IC50 was 6.05 nM and the “ratio IC50 hV2/hV1a” value is given as 3.7. Also, the IC50 at human V2 receptor is 22.5 nM.

For `O=C(c1nc(Cn2nc(-c3ccc(Cl)cc3)n(C[C@H](O)C(F)(F)F)c2=O)nn1CCC(F)(F)F)N1CCOCC1` [Example 26, 5-(4-Chlorophenyl)-2-{[5-(morpholin-4-ylcarbonyl)-1-(3,3,3-trifluoropropyl)-1H-1,2,4-triazol-3-yl]methyl}-4-[(2S)-3,3,3-trifluoro-2-hydroxypropyl]-2,4-dihydro-3H-1,2,4-triazol-3-one], the values for the IC50 at human V1a receptor and on human V2 receptor were 75 nM and 730 nM, respectively.

On to `CC(C)(C)NC(=O)c1nc(Cn2nc(-c3ccc(Cl)cc3)n(C[C@H](O)C(F)(F)F)c2=O)nn1-c1ncccc1Cl` [Example 27, N-tert-Butyl-3-({3-(4-chlorophenyl)-5-oxo-4-[(2S)-3,3,3-trifluoro-2-hydroxypropyl]-4,5-dihydro-1H-1,2,4-triazol-1-yl}methyl)-1-(3-chloropyridin-2-yl)-1H-1,2,4-triazole-5-carboxamide], for which the IC50 on human V1a receptor amounted to 4.15 nM; at human V2 receptor, 106 nM. For the same compound, the “ratio IC50 hV2/hV1a” value on human V1a receptor is given as 25.5.
